Data from PubChem BioAssay (NCI).
Values joined by “and” are separate entries in the source; they are usually repeats but may differ in a detail not shown here. Identical values can stand only once.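 Step 1: Grow cells in 96-well plates. Step 2: Expose to compound for 48 hours at 5 concentrations. Step 3: Interpolate endpoints linearly; if unreached, use highest concentration. At the GI50, growth is halved. At the TGI there is no net growth.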

Key:
Experiment in all cases: NCI tumour cell line growth inhibition, 48 h
UACC-257 melanoma = test system: UACC-257 melanoma
MDA-MB-231 breast = test system: MDA-MB-231 breast
PC-3 prostate = test system: PC-3 prostate
IGROV1 ovarian = test system: IGROV1 ovarian
NCI-H23 lung = test system: NCI-H23 lung
MDA-MB-435 = test system: MDA-MB-435
NCI-H522 lung = test system: NCI-H522 lung
HS 578T breast = test system: HS 578T breast
M14 melanoma = test system: M14 melanoma
CAKI-1 renal = test system: CAKI-1 renal
T-47D breast = test system: T-47D breast
KM12 colon = test system: KM12 colon
EKVX NSCLC = test system: EKVX NSCLC
TK-10 renal = test system: TK-10 renal
HT29 colon = test system: HT29 colon
BT-549 breast = test system: BT-549 breast
SF-268 CNS = test system: SF-268 CNS
RPMI-8226 leukemia = test system: RPMI-8226 leukemia
RXF 393 renal = test system: RXF 393 renal
SNB-19 CNS = test system: SNB-19 CNS
NCI-H460 lung = test system: NCI-H460 lung
SW-620 colon = test system: SW-620 colon
SK-MEL-28 melanoma = test system: SK-MEL-28 melanoma
HCT-116 colon = test system: HCT-116 colon
UO-31 renal = test system: UO-31 renal
K-562 leukemia = test system: K-562 leukemia
HCT-15 colon = test system: HCT-15 colon
LOX IMVI melanoma = test system: LOX IMVI melanoma
HL-60(TB) leukemia = test system: HL-60(TB) leukemia
NCI-H226 lung = test system: NCI-H226 lung
ACHN renal = test system: ACHN renal
SK-MEL-2 melanoma = test system: SK-MEL-2 melanoma
OVCAR-3 ovarian = test system: OVCAR-3 ovarian
A549 NSCLC = test system: A549 NSCLC
786-0 renal = test system: 786-0 renal
HOP-92 NSCLC = test system: HOP-92 NSCLC
HOP-62 NSCLC = test system: HOP-62 NSCLC
SN12C renal = test system: SN12C renal
MOLT-4 leukemia = test system: MOLT-4 leukemia
UACC-62 melanoma = test system: UACC-62 melanoma
SK-MEL-5 melanoma = test system: SK-MEL-5 melanoma
COLO 205 colon = test system: COLO 205 colon
MCF7 breast = test system: MCF7 breast
CCRF-CEM leukemia = test system: CCRF-CEM leukemia
SF-295 CNS = test system: SF-295 CNS
OVCAR-8 ovarian = test system: OVCAR-8 ovarian
OVCAR-5 ovarian = test system: OVCAR-5 ovarian
U251 CNS = test system: U251 CNS
MALME-3M melanoma = test system: MALME-3M melanoma
OVCAR-4 ovarian = test system: OVCAR-4 ovarian
DU-145 prostate = test system: DU-145 prostate

Molecule `Cc1ccc(-c2cc(C3=CC(=O)C=CC3=O)n(-c3ccc(S(N)(=O)=O)cc3)n2)cc1` has a GI50 (UACC-257 melanoma) of over 100 µM, a TGI (UACC-257 melanoma) of over 100 µM and a GI50 (MDA-MB-231 breast) of 20.6 µM. For the same molecule, the TGI (MDA-MB-231 breast) was 72.8 µM, the GI50 (PC-3 prostate) was 36.5 µM and the TGI (PC-3 prostate) was over 100 µM. The GI50 (IGROV1 ovarian) was over 100 µM, the TGI (IGROV1 ovarian) was over 100 µM and the GI50 (NCI-H23 lung) was 32.9 µM. The TGI (NCI-H23 lung) was over 100 µM, the GI50 (MDA-MB-435) was 59.4 µM and the TGI (MDA-MB-435) was over 100 µM. It also gave a GI50 (NCI-H522 lung) of 59.9 µM, a TGI (NCI-H522 lung) of over 100 µM and a GI50 (HS 578T breast) of 64.8 µM. The TGI (HS 578T breast) was over 100 µM, the GI50 (M14 melanoma) was 31.8 µM and the TGI (M14 melanoma) was 80.9 µM. For the same molecule, the GI50 (CAKI-1 renal) was 52.3 µM, the TGI (CAKI-1 renal) was over 100 µM and the GI50 (T-47D breast) was 46.8 µM. The TGI (T-47D breast) was over 100 µM, the GI50 (KM12 colon) was 24 µM and the TGI (KM12 colon) was over 100 µM. The GI50 (EKVX NSCLC) was 47.8 µM, the TGI (EKVX NSCLC) was over 100 µM and the GI50 (TK-10 renal) was 8.54 µM. It also gave a TGI (TK-10 renal) of 48.7 µM, a GI50 (HT29 colon) of 56.4 µM and a TGI (HT29 colon) of over 100 µM. The GI50 (BT-549 breast) was 64.1 µM, the TGI (BT-549 breast) was over 100 µM and the GI50 (SF-268 CNS) was 55.3 µM. It also gave a TGI (SF-268 CNS) of over 100 µM, a GI50 (RPMI-8226 leukemia) of 6.17 µM and a TGI (RPMI-8226 leukemia) of 70.2 µM. The GI50 (RXF 393 renal) was over 100 µM, the TGI (RXF 393 renal) was over 100 µM and the GI50 (SNB-19 CNS) was 63.7 µM. The TGI (SNB-19 CNS) was over 100 µM, the GI50 (NCI-H460 lung) was 68.2 µM and the TGI (NCI-H460 lung) was over 100 µM. The GI50 (SW-620 colon) was 44.5 µM, the TGI (SW-620 colon) was over 100 µM and the GI50 (SK-MEL-28 melanoma) was over 100 µM. For the same molecule, the TGI (SK-MEL-28 melanoma) was over 100 µM, the GI50 (HCT-116 colon) was 17.3 µM and the TGI (HCT-116 colon) was 33 µM. The GI50 (UO-31 renal) was over 100 µM, the TGI (UO-31 renal) was over 100 µM and the GI50 (K-562 leukemia) was 34.4 µM. The TGI (K-562 leukemia) was over 100 µM, the GI50 (HCT-15 colon) was 58.2 µM and the TGI (HCT-15 colon) was over 100 µM. The GI50 (LOX IMVI melanoma) was 31.2 µM, the TGI (LOX IMVI melanoma) was over 100 µM and the GI50 (HL-60(TB) leukemia) was 37.3 µM. It also gave a TGI (HL-60(TB) leukemia) of over 100 µM, a GI50 (NCI-H226 lung) of 54 µM and a TGI (NCI-H226 lung) of over 100 µM. The GI50 (ACHN renal) was 42.9 µM, the TGI (ACHN renal) was over 100 µM and the GI50 (SK-MEL-2 melanoma) was over 100 µM. It also gave a TGI (SK-MEL-2 melanoma) of over 100 µM, a GI50 (OVCAR-3 ovarian) of 44.5 µM and a TGI (OVCAR-3 ovarian) of over 100 µM. For the same molecule, the GI50 (A549 NSCLC) was over 100 µM, the TGI (A549 NSCLC) was over 100 µM and the GI50 (786-0 renal) was 26.6 µM. For the same molecule, the TGI (786-0 renal) was 58.8 µM, the GI50 (HOP-92 NSCLC) was 35.6 µM and the TGI (HOP-92 NSCLC) was over 100 µM. The GI50 (HOP-62 NSCLC) was 69.7 µM, the TGI (HOP-62 NSCLC) was over 100 µM and the GI50 (SN12C renal) was 58.7 µM. The TGI (SN12C renal) was over 100 µM, the GI50 (MOLT-4 leukemia) was 9.06 µM and the TGI (MOLT-4 leukemia) was over 100 µM. The GI50 (UACC-62 melanoma) was 39.5 µM, the TGI (UACC-62 melanoma) was over 100 µM and the GI50 (SK-MEL-5 melanoma) was 83.1 µM. It also gave a TGI (SK-MEL-5 melanoma) of over 100 µM, a GI50 (COLO 205 colon) of 53.9 µM and a TGI (COLO 205 colon) of over 100 µM. For the same molecule, the GI50 (MCF7 breast) was 53.1 µM, the TGI (MCF7 breast) was over 100 µM and the GI50 (CCRF-CEM leukemia) was over 100 µM. It also gave a TGI (CCRF-CEM leukemia) of over 100 µM, a GI50 (SF-295 CNS) of over 100 µM and a TGI (SF-295 CNS) of over 100 µM. It also gave a GI50 (OVCAR-8 ovarian) of 88.7 µM, a TGI (OVCAR-8 ovarian) of over 100 µM and a GI50 (OVCAR-5 ovarian) of 35.9 µM. The TGI (OVCAR-5 ovarian) was over 100 µM, the GI50 (U251 CNS) was 42.4 µM and the TGI (U251 CNS) was over 100 µM.

`Cc1ccnc2[nH]c(-c3ccccc3)cc(=O)c12` showed a GI50 (MDA-MB-231 breast) of 0.134 µM, a TGI (PC-3 prostate) of over 100 µM and a GI50 (IGROV1 ovarian) of 1.84 µM. For the same molecule, the TGI (IGROV1 ovarian) was over 100 µM, the TGI (MALME-3M melanoma) was over 100 µM and the GI50 (NCI-H23 lung) was 0.0692 µM. It also gave a TGI (OVCAR-4 ovarian) of over 100 µM, a TGI (NCI-H522 lung) of 0.192 µM and a TGI (HS 578T breast) of over 100 µM. It also gave a TGI (T-47D breast) of over 100 µM, a TGI (KM12 colon) of 12.8 µM and a GI50 (EKVX NSCLC) of over 100 µM. The TGI (EKVX NSCLC) was over 100 µM, the TGI (TK-10 renal) was 58.9 µM and the TGI (HT29 colon) was 0.0259 µM. For the same molecule, the TGI (BT-549 breast) was over 100 µM, the GI50 (SF-268 CNS) was 0.0171 µM and the TGI (SF-268 CNS) was over 100 µM. For the same molecule, the GI50 (RPMI-8226 leukemia) was 0.0278 µM, the TGI (RXF 393 renal) was 0.0184 µM and the TGI (NCI-H460 lung) was over 100 µM. For the same molecule, the TGI (SW-620 colon) was over 100 µM, the TGI (SK-MEL-28 melanoma) was over 100 µM and the TGI (HCT-116 colon) was 10.6 µM. For the same molecule, the GI50 (NCI-H226 lung) was 1.46 µM, the TGI (NCI-H226 lung) was 5.96 µM and 32.5 µM and the TGI (ACHN renal) was 63.3 µM. The TGI (A549 NSCLC) was over 100 µM, the TGI (786-0 renal) was over 100 µM and the TGI (HOP-92 NSCLC) was 93.7 µM. For the same molecule, the GI50 (SN12C renal) was 0.0399 µM, the TGI (MOLT-4 leukemia) was over 100 µM and the TGI (DU-145 prostate) was over 100 µM. The GI50 (OVCAR-8 ovarian) was 0.0193 µM, the TGI (OVCAR-8 ovarian) was over 100 µM and the GI50 (OVCAR-5 ovarian) was 20.9 µM. It also gave a TGI (OVCAR-5 ovarian) of 51.2 µM and a TGI (U251 CNS) of over 100 µM.
